Measured values as given in PMC9384988, “The TPR domain of PgaA is a multifunctional scaffold that binds PNAG and modulates PgaB-dependent polymer processing” (PLoS Pathogens, 2022).

Assays:
PgaA-32-220 = assay: ESI-MS binding test, PgaA-32-220; parameters: species or system E. coli; settings: sample partially degraded
Experimental: PgaA32-220 was analyzed using the SolariX 15 T FT-ICR mass spectrometer (Bruker-Daltonics, Billerica, MA), equipped with a dynamically harmonized ParaCell and nanoESI source. […] The instrumental parameters for these measurements were: glass capillary exit voltage (200 V); source drying gas (N2, 4 L/min and 120°C); deflector plate (220 V). The RF amplitude of the ion-funnels was 300 V peak-to-peak, and the applied voltages were 150 V and 6 V for funnels 1 and 2, respectively. The voltage of skimmer 1 was 30 V and the skimmer 2 voltage was 5 V. Accumulation time in the hexapole collision cell was 0.7 s; the time-of-flight was 2 ms. The operating pressure in UHV region was ~5×10^−10 mbar. Data acquisition was performed using the FtmsControl software (version 2.2). The time-domain signal, consisting of the sum of 25 transients, containing 2M data points per transient, was subjected to one zero-fill prior to Fourier-transform.

PgaA-32-367 = molecular target: T1, PgaA-32-367 (Escherichia coli, UniProt P69434); assay: Direct ESI-MS binding assay, PgaA-32-367; parameters: species or system E. coli; settings: 25°C and pH 7, direct ESI-MS assay; for Kd: read-out: Kd, TPR region 32–367
T1 construct: His6 (thrombin cleavable, pET28) (N); made in house; host or cells: E. coli BL21 CodonPlus
T1 sequence (P69434 32-367): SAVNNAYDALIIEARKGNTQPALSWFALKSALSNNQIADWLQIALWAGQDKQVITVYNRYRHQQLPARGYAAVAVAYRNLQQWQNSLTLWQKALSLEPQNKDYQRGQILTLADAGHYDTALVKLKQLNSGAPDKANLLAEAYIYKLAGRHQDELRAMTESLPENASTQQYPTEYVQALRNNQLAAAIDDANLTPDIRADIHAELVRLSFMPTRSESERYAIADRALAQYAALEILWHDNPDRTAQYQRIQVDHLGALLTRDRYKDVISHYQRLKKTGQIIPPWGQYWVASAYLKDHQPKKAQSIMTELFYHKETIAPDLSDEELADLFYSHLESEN
Experimental: (§1) Solutions of PgaA220-367 (5.7 μM) and PgaA32-367 (11.6 μM) were used for binding assay. […] Binding measurements were carried out in positive ion mode using a Synapt G2S ESI-Q-IMS-TOF mass spectrometer (Waters, Manchester, UK) equipped with nanoflow ESI (nanoESI) source. NanoESI was performed by applying a voltage of ~1 kV to a platinum wire inserted into the nanoESI tip, which was produced from a borosilicate glass capillary (1.0 mm o.d., 0.68 mm i.d.) pulled to ~5 μm o.d. using a P−1000 micropipette puller (Sutter Instruments, Novato, CA). The source temperature and gas flow rate was 60°C and 2 mL/min, respectively. The Cone, Trap and Transfer voltages were 20 V, 3 V and 1 V, respectively. MassLynx software (version 4.1) was used for data acquisition and processing.
(§2) The Kd for protein (P)—ligand (L) binding was calculated from the abundance ratio of L-bound to free P ions (i.e., R), measured by ESI-MS: R = Ab(PL)/Ab(P) = [PL]/[P], Kd = [P][L]/[PL] = [L]0/R—[P]0/(R+1), where [P]0 and [L]0 are initial concentrations of protein and ligand, correspondingly. Non-specific protein-ligand binding was corrected as published.

PgaA-220-367 = molecular target: T2, PgaA-220-367 (Escherichia coli, UniProt P69434); assay: Direct ESI-MS binding assay, PgaA-220-367; parameters: species or system E. coli; settings: 25°C and pH 7, direct ESI-MS assay; for Kd: read-out: Kd, TPR region 220–367
T2 construct: His6 (thrombin cleavable, pET28) (N); made in house; host or cells: E. coli BL21 CodonPlus (DE3)
T2 sequence (P69434 220-367): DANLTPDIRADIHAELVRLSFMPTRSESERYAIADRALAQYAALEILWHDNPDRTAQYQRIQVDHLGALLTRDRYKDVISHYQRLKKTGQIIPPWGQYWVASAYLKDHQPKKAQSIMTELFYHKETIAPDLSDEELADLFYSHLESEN
Experimental: as §1, §2

His-PgaA (PgaA-32-807) = molecular target: T3, His-PgaA (PgaA-32-807) (E. coli K-12, UniProt P69434 32-807)
T3 construct: also called His-PgaA-32-807; full-length PgaA; source: E. coli BL21: co-expressed with PgaB, in DDM extract of the lysate pellet (pull-down); expressed alone or with PgaB and purified (NiNTA, gel filtration, DDM); not shown: His6, N-terminal, kept
T3 sequence (looked up): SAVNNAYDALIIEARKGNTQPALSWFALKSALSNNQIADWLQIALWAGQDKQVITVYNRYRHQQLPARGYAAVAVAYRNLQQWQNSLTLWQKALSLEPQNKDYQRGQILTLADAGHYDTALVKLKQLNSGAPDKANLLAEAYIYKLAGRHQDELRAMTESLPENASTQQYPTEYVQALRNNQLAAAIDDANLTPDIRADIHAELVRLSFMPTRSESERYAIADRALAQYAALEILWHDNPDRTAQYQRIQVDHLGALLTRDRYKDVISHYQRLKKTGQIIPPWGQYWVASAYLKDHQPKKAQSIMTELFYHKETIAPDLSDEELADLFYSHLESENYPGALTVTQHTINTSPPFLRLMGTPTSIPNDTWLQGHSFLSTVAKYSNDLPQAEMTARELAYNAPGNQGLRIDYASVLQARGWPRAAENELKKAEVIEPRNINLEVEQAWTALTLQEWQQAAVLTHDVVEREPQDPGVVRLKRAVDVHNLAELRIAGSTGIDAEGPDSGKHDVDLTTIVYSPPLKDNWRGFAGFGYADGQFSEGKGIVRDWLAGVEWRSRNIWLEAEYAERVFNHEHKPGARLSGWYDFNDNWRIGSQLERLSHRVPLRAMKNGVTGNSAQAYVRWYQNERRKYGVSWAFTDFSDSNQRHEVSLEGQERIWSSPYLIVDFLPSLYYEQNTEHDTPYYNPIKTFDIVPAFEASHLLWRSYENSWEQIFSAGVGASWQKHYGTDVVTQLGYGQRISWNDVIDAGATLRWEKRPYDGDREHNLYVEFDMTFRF

[1] = Fluorescamine de-acetylation assay; assay type: biochemical; settings: 30 μM enzyme and 30 mM PNAG hexamer; fluorescamine readout
Experimental: To determine whether the modulation of enzyme activity might be a common theme for the TPR domain across synthase-dependent systems, we assayed the deacetylase and glycoside hydrolase activities of PgaB in the presence and absence of PgaA. As we used co-expression to obtain the complexes, a SDS PAGE gel of the purified solutions of PgaA, PgaB and PgaA/B complexes was analyzed to ensure that equal quantities of the protein/protein complex were used (Fig 2A). Consistent with previous published studies, PgaA and PgaB appear to form a 1:1 complex. The deacetylase activity was assessed using a fluorescamine-based assay with fully acetylated PNAG hexamers as the substrate. As fluorescamine detects the presence of primary amines, which are generated during the deacetylation of the PNAG oligosaccharide, this assay provides a direct readout of the deacetylation activity of PgaB. To assess the glycoside hydrolase activity, we used a biofilm disruption assay, which has been used previously to characterize PgaB’s glycosidase activity. In this assay, biofilms of Staphylococcus epidermidis strain SE801 were grown in 96 well plates for 24 h, at which point PgaB was added. After a further 2 h, the reaction was quenched, plates washes and the amount of adherent biofilm remaining quantified using crystal violet staining. […]

For `CC(=O)N[C@H]1[C@H](OC[C@H]2O[C@@H](OC[C@H]3O[C@@H](OC[C@H]4O[C@@H](OC[C@H]5OC(O)[C@H](NC(C)=O)[C@@H](O)[C@@H]5O)[C@H](NC(C)=O)[C@@H](O)[C@@H]4O)[C@H](N)[C@@H](O)[C@@H]3O)[C@H](NC(C)=O)[C@@H](O)[C@@H]2O)O[C@H](CO)[C@@H](O)[C@@H]1O` (stereo partly shown) [(GlcNAc)2-GlcN-(GlcNAc)2], the “binding to TPR region 32–220” value (PgaA-32-220) was “No binding”, the Kd (PgaA-32-367) was 2.3 mM and the Kd (PgaA-220-367) was 1.3 mM.

For `CC(=O)N[C@H]1[C@H](O[C@H]2[C@@H](O)[C@@H](CO)O[C@@H](O[C@@H]([C@H](O)[C@@H](O)C=O)[C@H](O)CO)[C@@H]2O)O[C@H](CO)[C@@H](O)[C@@H]1O[C@@H]1O[C@H](CO)[C@H](O)[C@H](O)[C@H]1O[C@@H]1O[C@@H](C)[C@@H](O)[C@@H](O)[C@@H]1O` [LNF1, lacto-N-fucopentaose, reference compound], the “Kd, TPR region 32–367” value (PgaA-32-367) was “No binding” and the “Kd, TPR region 220–367” value (PgaA-220-367) was “No binding”.

In the case of `CC(=O)N[C@H]1[C@H](OC[C@H]2O[C@@H](OC[C@H]3O[C@@H](OC[C@H]4O[C@@H](OC[C@H]5OC(O)[C@H](NC(C)=O)[C@@H](O)[C@@H]5O)[C@H](NC(C)=O)[C@@H](O)[C@@H]4O)[C@H](NC(C)=O)[C@@H](O)[C@@H]3O)[C@H](NC(C)=O)[C@@H](O)[C@@H]2O)O[C@H](CO)[C@@H](O)[C@@H]1O` (stereo partly shown), the “binding to TPR region 32–220” value (PgaA-32-220) is reported as “No binding”, the Kd (PgaA-32-367) is reported as 10 mM and the Kd (PgaA-220-367) is reported as 1.7 mM.

“PgaB-22-672 (soluble form of PgaB) (from UniProt P75906 22-672) (enzyme)” showed a fluorescamine-based deacetylation assay with PNAG hexamer, concentration of GlcN produced (PgaA+B, individually purified and mixed) (His-PgaA (PgaA-32-807)) of 1290 µM.

B1: PgaA: E. coli PgaA residues 32–807, TPR domain plus outer membrane porin (protein)
chain: T3 sequence (looked up)
modifications: left off: His6, N-terminal, kept
notes: E. coli PgaA residues 32–807, TPR domain plus outer membrane porin
For B1, the “concentration of GlcN produced” value [1] was 73.8 ± 6.3 µM.
